What was measured:
[1] = test system: excreted amount of phenol red in trachea of mice; test: Expectorant effect in mice (phenol red excretion in trachea); assay type: in vivo, Balb/c mice
Description: 80 Balb/c male mice (about 8 weeks old) were randomized into 8 groups based on body weight (10 mice/group). The groups were respectively blank control group and positive control group—ammonium chloride group (1 g/kg), high, medium and low dose groups of the traditional Chinese medicine composition produced by Comparative Example 1 (0.35, 1.05, 2.10 ml/kg), high, medium and low dose groups of the medicament produced by Example 1 (0.35, 1.05, 2.10 ml/kg). The blank control group was administered equal volume of deionized water. The administration volume was always 2.10 ml/kg. Gavage was performed for consecutive 30 days, once/day. 30 min before modeling, the positive control group was administered. […] A certain amount of phenol red was weighted with a balance, and 5% sodium bicarbonate solution was added to formulate 1 ml solution containing […] of phenol red, which was diluted sequentially to 1 mL solution containing 0.1, 0.3, 0.7, 1.0, 3.0, 5.0, 10.0 μg of phenol red was measured for absorbance. A standard curve was made by taking the dose of phenol red as abscissa, absorbance as ordinate. The amount of phenol red was calculated from the standard curve of phenol red according to the measured OD value. […]

[2] = test system: capsaicin induced rats' pharyngitis; test: Effect on acute pharyngitis (capsaicin induced pharyngitis), EB dye exudation at pharyngeal mucosa; assay type: in vivo, SD rats; details: 1 mg/kg intragastric, 10 days before modeling
Description: Experimental method: 90 male SD rats (˜8 weeks age) were randomized into 9 groups (10 rats/group). […] Animals from Comparative Example groups and Example of the present application groups were intragastrically administrated 30 days before modeling, once a day. Blank control group and model control group were administered equal volume of distilled water. […] The positive control group was administered at 1 mg/kg, and was intragastrically administrated 10 days before modeling. 24 hours after the last administration, the rats were anesthetized, injected with EB dye through the side tail vein. Ten minutes later, capsaicin was smeared to velopharyngeal tissue mucosa of rats, wherein each point was smeared for 3 times/5 seconds, with a total of 60 minutes. Blank control group was not subjected to stimulation.
After the end of the experiment, all rats were sacrificed by cervical dislocation, and were subjected to quantitative determination of EB dye exudation at pharyngeal mucosa respectively, in order to evaluate the improvement situation of pharyngeal mucosa inflammation of rats induced by capsaicin.

[3] = test system: carrageenan induced toe swelling of mice; test: Acute inflammatory model: carrageenan-induced paw edema; assay type: in vivo, Balb/c mice; details: 10 mg/kg, blank control = 100
Description: 90 Balb/c male mice (about 8 weeks old) were randomized into 9 groups based on body weight (10 mice/group). The groups were respectively blank control group, model group and positive control group—dexamethasone group, high, medium and low dose groups of the traditional Chinese medicine composition produced by Comparative Example 1 (0.35, 1.05, 2.10 ml/kg), high, medium and low dose groups of the medicament produced by Example 1 (0.35, 1.05, 2.10 ml/kg). Animals from Comparative Example group and Examples of the present application groups were intragastrically administrated 30 days before modeling, once a day. Blank control group and model control group were administered equal volume of distilled water. The administration volume was always 2.10 ml/kg. Dexamethasone group was administered at 10 mg/kg, and was intragastrically administrated 10 days before modeling. The model control group was intragastrically administrated equal volume of distilled water for consecutive 30 days, once a day. On day 30, 1 hour after the test samples were administered, a line was drawn using a marker pen along the external malleolus of right rear paw of rats as the marker. A toe volume measuring instrument was used to measure the volumes of right rear toes of each groups of rats (as the toe volume at 0 hour), and then the right rear toes of rats were subcutaneously injected 1% carrageenan (0.05 mL/rat). The thickness of rat paws at 1, 2, 4 hours were measured respectively. Each animal was measured for 3 times at the same site, and the results were averaged. The swelling value is defined as the difference between the toe volumes measured at different times and the toe volumes before the action of proinflammatory agent, which is used to calculate the toe volume swelling rates at each time period.
[Paw edema (mm)]=[footpad thickness of carrageenan (mm)−footpad thickness of PBS (mm)].

[4] = test system: mouse tampon granuloma; test: Chronic inflammatory model: cotton pellet (tampon) induced granuloma; assay type: in vivo, Balb/c mice; details: mice, 10 mg/kg
Description: 80 Balb/c male mice (about 8 weeks old) were randomized into 8 groups based on body weight (10 mice/group). The groups were respectively model group and positive control group—dexamethasone group, high, medium and low dose groups of the traditional Chinese medicine composition produced by Comparative Example 1 (0.35, 1.05, 2.10 ml/kg), high, medium and low dose groups of the medicament produced by Example 1 (0.35, 1.05, 2.10 ml/kg). Animals from Comparative Example group and Examples of the present application groups were intragastrically administrated 30 days before modeling, once a day. Model control group was administered equal volume of deionized water. The administration volume was always 2.10 ml/kg. Dexamethasone group was administered at 10 mg/kg, and was intragastrically administrated 10 days before modeling. After the last administration, the mice were anesthetized by intraperitoneal injection of 3% pentobarbital sodium at a dose of 60 mg/kg body weight. After anesthesia, the animals were fixed in supine position, and the bilateral inguinal clothing hairs of the rats were removed with a hair removal device. After iodophor disinfection, the rats were subjected to skin incision for about 2 cm at both sides of the groin, and a sterilized tampon was implanted at both sides of the groin of the rats. […]

Compound	excreted amount of phenol red, result in words ([1]; compared with control group)	excreted amount of phenol red ([1]; mice, 1 g/kg, 30 min before modeling)	exudated amount of evans blue (EB) [2]	Swelling degrees of toes at different times after inflammation, 1 h ([3]; 1 h)	Swelling degrees of toes at different times after inflammation, 2 h ([3]; 2 h)	Swelling degrees of toes at different times after inflammation, 4 h ([3]; 4 h)	wet weight of granuloma [4]	Net weight of granuloma ([4]; dried weight minus original weight of tampon)
Cl.N [ammonium chloride]	significantly (P<0.05) increase the excreted amount of phenol red	7.92 ± 0.88 µg/mL						
C[C@@H]1C[C@H]2[C@@H]3CCC4=CC(=O)C=C[C@]4(C)[C@@]3(F)[C@@H](O)C[C@]2(C)[C@@]1(O)C(=O)CO [dexamethasone, Dexamethasone]			36.98 ± 2.74 µg/g	177.23	164.17	157.17	217.11	13.03 mg

Source: patent US20180085416A1, “TRADITIONAL CHINESE MEDICINE COMPOSITION AND PREPARATION METHOD AND USE THEREOF” (INFINITUS (CHINA) COMPANY LTD., priority 2016, published 2018)
